According to the supplement of paper PMC10307832:

Assays:
Experiment in all cases: relative viability (nuclei count vs DMSO), 5 days (fraction); higher = more cells survive
Palbociclib + Olaparib = compound: CC(=O)c1c(C)c2cnc(Nc3ccc(N4CCNCC4)cn3)nc2n(C2CCCC2)c1=O [Palbociclib] + O=C(c1cc(Cc2n[nH]c(=O)c3ccccc23)ccc1F)N1CCN(C(=O)C2CC2)CC1 [Olaparib] (partner 8 µM)
Summary of the method: (§1)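 Relative viability equals treated-well nuclei counts divided by vehicle-well nuclei counts. Counts came from 4× images of lung cancer cell lines grown in 1536-well plates for 5 days after pin-tool dosing on the day after seeding. Dosing used one drug alone or a fixed anchor-drug dose plus five library-drug doses (not always all listed) in √10 steps, and values are medians of duplicate plates.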

Palbociclib + Decitabine = compound: CC(=O)c1c(C)c2cnc(Nc3ccc(N4CCNCC4)cn3)nc2n(C2CCCC2)c1=O [Palbociclib] + Nc1ncn([C@H]2C[C@H](O)[C@@H](CO)O2)c(=O)n1 [Decitabine] (partner 2 µM)
Summary of the method: as §1

Palbociclib + Vorinostat = compound: CC(=O)c1c(C)c2cnc(Nc3ccc(N4CCNCC4)cn3)nc2n(C2CCCC2)c1=O [Palbociclib] + O=C(CCCCCCC(=O)Nc1ccccc1)NO [Vorinostat] (partner 1 µM)
Summary of the method: as §1

Palbociclib + OSI-027 = compound: CC(=O)c1c(C)c2cnc(Nc3ccc(N4CCNCC4)cn3)nc2n(C2CCCC2)c1=O [Palbociclib] + COc1cccc2cc(-c3nc([C@H]4CC[C@H](C(=O)O)CC4)n4ncnc(N)c34)[nH]c12 [OSI-027] (partner 0.5 µM)
Summary of the method: as §1

Palbociclib + Pemetrexed = compound: CC(=O)c1c(C)c2cnc(Nc3ccc(N4CCNCC4)cn3)nc2n(C2CCCC2)c1=O [Palbociclib] + Nc1nc2[nH]cc(CCc3ccc(C(=O)N[C@@H](CCC(=O)O)C(=O)O)cc3)c2c(=O)[nH]1 [Pemetrexed] (partner 0.2 µM)
Summary of the method: as §1

Palbociclib + AZD7762 = compound: CC(=O)c1c(C)c2cnc(Nc3ccc(N4CCNCC4)cn3)nc2n(C2CCCC2)c1=O [Palbociclib] + NC(=O)Nc1cc(-c2cccc(F)c2)sc1C(=O)N[C@H]1CCCNC1 [AZD7762] (partner 0.2 µM)
Summary of the method: as §1

Palbociclib + Tozasertib = compound: CC(=O)c1c(C)c2cnc(Nc3ccc(N4CCNCC4)cn3)nc2n(C2CCCC2)c1=O [Palbociclib] + Cc1cc(Nc2cc(N3CCN(C)CC3)nc(Sc3ccc(NC(=O)C4CC4)cc3)n2)n[nH]1 [Tozasertib] (partner 0.1 µM)
Summary of the method: as §1

Palbociclib + Trametinib = compound: CC(=O)c1c(C)c2cnc(Nc3ccc(N4CCNCC4)cn3)nc2n(C2CCCC2)c1=O [Palbociclib] + CC(=O)Nc1cccc(-n2c(=O)n(C3CC3)c(=O)c3c(Nc4ccc(I)cc4F)n(C)c(=O)c(C)c32)c1 [Trametinib] (partner 0.02 µM)
Summary of the method: as §1

Palbociclib = compound: CC(=O)c1c(C)c2cnc(Nc3ccc(N4CCNCC4)cn3)nc2n(C2CCCC2)c1=O [Palbociclib]
Summary of the method: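 Acceptance criteria were a control CV below 25% and at least one doubling per plate. Lung cancer cell lines in 1536-well plates got five library-drug doses (not always all listed) √10 apart by pinning and were left 5 days with no medium change. Viability divides treated-well nuclei by vehicle-well nuclei and is the median across plates. Nuclei were counted by MetaXpress from 4× Hoechst images.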

Palbociclib + Navitoclax = compound: CC(=O)c1c(C)c2cnc(Nc3ccc(N4CCNCC4)cn3)nc2n(C2CCCC2)c1=O [Palbociclib] + CC1(C)CCC(c2ccc(Cl)cc2)=C(CN2CCN(c3ccc(C(=O)NS(=O)(=O)c4ccc(N[C@H](CCN5CCOCC5)CSc5ccccc5)c(S(=O)(=O)C(F)(F)F)c4)cc3)CC2)C1 [Navitoclax] (partner 0.5 µM)
Summary of the method: as §1

Palbociclib + Foretinib = compound: CC(=O)c1c(C)c2cnc(Nc3ccc(N4CCNCC4)cn3)nc2n(C2CCCC2)c1=O [Palbociclib] + COc1cc2c(Oc3ccc(NC(=O)C4(C(=O)Nc5ccc(F)cc5)CC4)cc3F)ccnc2cc1OCCCN1CCOCC1 [Foretinib] (partner 0.25 µM)
Summary of the method: as §1

Palbociclib + Lapatinib = compound: CC(=O)c1c(C)c2cnc(Nc3ccc(N4CCNCC4)cn3)nc2n(C2CCCC2)c1=O [Palbociclib] + CS(=O)(=O)CCNCc1ccc(-c2ccc3ncnc(Nc4ccc(OCc5cccc(F)c5)c(Cl)c4)c3c2)o1 [Lapatinib] (partner 2 µM)
Summary of the method: as §1

Palbociclib + Crizotinib = compound: CC(=O)c1c(C)c2cnc(Nc3ccc(N4CCNCC4)cn3)nc2n(C2CCCC2)c1=O [Palbociclib] + C[C@@H](Oc1cc(-c2cnn(C3CCNCC3)c2)cnc1N)c1c(Cl)ccc(F)c1Cl [Crizotinib] (partner 1 µM)
Summary of the method: as §1

Palbociclib + Pictilisib = compound: CC(=O)c1c(C)c2cnc(Nc3ccc(N4CCNCC4)cn3)nc2n(C2CCCC2)c1=O [Palbociclib] + CS(=O)(=O)N1CCN(Cc2cc3nc(-c4cccc5[nH]ncc45)nc(N4CCOCC4)c3s2)CC1 [Pictilisib] (partner 1 µM)
Summary of the method: as §1

Palbociclib + Bortezomib = compound: CC(=O)c1c(C)c2cnc(Nc3ccc(N4CCNCC4)cn3)nc2n(C2CCCC2)c1=O [Palbociclib] + CC(C)C[C@H](NC(=O)[C@H](Cc1ccccc1)NC(=O)c1cnccn1)B(O)O [Bortezomib] (partner 0.002 µM)
Summary of the method: as §1

Palbociclib + Linsitinib = compound: CC(=O)c1c(C)c2cnc(Nc3ccc(N4CCNCC4)cn3)nc2n(C2CCCC2)c1=O [Palbociclib] + C[C@]1(O)C[C@@H](c2nc(-c3ccc4ccc(-c5ccccc5)nc4c3)c3c(N)nccn32)C1 [Linsitinib] (partner 1 µM)
Summary of the method: as §1

Palbociclib + Alpelisib = compound: CC(=O)c1c(C)c2cnc(Nc3ccc(N4CCNCC4)cn3)nc2n(C2CCCC2)c1=O [Palbociclib] + Cc1nc(NC(=O)N2CCC[C@H]2C(N)=O)sc1-c1ccnc(C(C)(C)C(F)(F)F)c1 [Alpelisib] (partner 2 µM)
Summary of the method: as §1

NCI-H1648
relative viability (Palbociclib + Olaparib; first compound 0.01 µM): 0.679 | relative viability (Palbociclib + Olaparib; first compound 0.03162 µM): 0.71 | relative viability (Palbociclib + Olaparib; first compound 0.1 µM): 0.518 | relative viability (Palbociclib + Olaparib; first compound 0.3162 µM): 0.587 | relative viability (Palbociclib + Olaparib; first compound 1 µM): 0.37 | relative viability (Palbociclib + Decitabine; first compound 0.01 µM): 0.651 | relative viability (Palbociclib + Decitabine; first compound 0.03162 µM): 0.376 | relative viability (Palbociclib + Decitabine; first compound 0.1 µM): 0.445 | relative viability (Palbociclib + Decitabine; first compound 0.3162 µM): 0.511 | relative viability (Palbociclib + Decitabine; first compound 1 µM): 0.339 | relative viability (Palbociclib + Vorinostat; first compound 0.01 µM): 0.869 | relative viability (Palbociclib + Vorinostat; first compound 0.03162 µM): 0.426 | relative viability (Palbociclib + Vorinostat; first compound 0.1 µM): 0.386 | relative viability (Palbociclib + Vorinostat; first compound 0.3162 µM): 0.388 | relative viability (Palbociclib + Vorinostat; first compound 1 µM): 0.398 | relative viability (Palbociclib + OSI-027; first compound 0.01 µM): 0.264 | relative viability (Palbociclib + OSI-027; first compound 0.1 µM): 0.256 | relative viability (Palbociclib + OSI-027; first compound 0.3162 µM): 0.27 | relative viability (Palbociclib + OSI-027; first compound 1 µM): 0.251 | relative viability (Palbociclib + Pemetrexed; first compound 0.01 µM): 0.76 | relative viability (Palbociclib + Pemetrexed; first compound 0.03162 µM): 0.549 | relative viability (Palbociclib + Pemetrexed; first compound 0.1 µM): 0.562 | relative viability (Palbociclib + Pemetrexed; first compound 0.3162 µM): 0.582 | relative viability (Palbociclib + Pemetrexed; first compound 1 µM): 0.411 | relative viability (Palbociclib + AZD7762; first compound 0.01 µM): 0.841 | relative viability (Palbociclib + AZD7762; first compound 0.03162 µM): 0.436 | relative viability (Palbociclib + AZD7762; first compound 0.1 µM): 0.598 | relative viability (Palbociclib + AZD7762; first compound 0.3162 µM): 0.657 | relative viability (Palbociclib + AZD7762; first compound 1 µM): 0.56 | relative viability (Palbociclib + Tozasertib; first compound 0.01 µM): 0.585 | relative viability (Palbociclib + Tozasertib; first compound 0.1 µM): 0.405 | relative viability (Palbociclib + Tozasertib; first compound 0.3162 µM): 0.526 | relative viability (Palbociclib + Tozasertib; first compound 1 µM): 0.175 | relative viability (Palbociclib + Trametinib; first compound 0.01 µM): 0.657 | relative viability (Palbociclib + Trametinib; first compound 0.03162 µM): 0.364 | relative viability (Palbociclib + Trametinib; first compound 0.1 µM): 0.357 | relative viability (Palbociclib + Trametinib; first compound 0.3162 µM): 0.45 | relative viability (Palbociclib + Trametinib; first compound 1 µM): 0.406 | relative viability (Palbociclib; 0.01 µM): 1.12 | relative viability (Palbociclib; 0.03162 µM): 0.451 | relative viability (Palbociclib; 0.1 µM): 0.667 | relative viability (Palbociclib; 0.3162 µM): 0.764 | relative viability (Palbociclib; 0.5 µM, anchor plate): 0.284 | relative viability (Palbociclib; 1 µM): 0.336

NCI-H1703
relative viability (Palbociclib + Olaparib; first compound 0.01 µM): 0.417 | relative viability (Palbociclib + Olaparib; first compound 0.03162 µM): 0.339 | relative viability (Palbociclib + Olaparib; first compound 0.1 µM): 0.293 | relative viability (Palbociclib + Olaparib; first compound 0.3162 µM): 0.199 | relative viability (Palbociclib + Olaparib; first compound 1 µM): 0.203 | relative viability (Palbociclib + Navitoclax; first compound 0.01 µM): 1.18 | relative viability (Palbociclib + Navitoclax; first compound 0.03162 µM): 0.756 | relative viability (Palbociclib + Navitoclax; first compound 0.1 µM): 0.753 | relative viability (Palbociclib + Navitoclax; first compound 0.3162 µM): 0.394 | relative viability (Palbociclib + Navitoclax; first compound 1 µM): 0.28 | relative viability (Palbociclib + Foretinib; first compound 0.01 µM): 0.259 | relative viability (Palbociclib + Foretinib; first compound 0.03162 µM): 0.308 | relative viability (Palbociclib + Foretinib; first compound 0.1 µM): 0.287 | relative viability (Palbociclib + Foretinib; first compound 0.3162 µM): 0.28 | relative viability (Palbociclib + Foretinib; first compound 1 µM): 0.292 | relative viability (Palbociclib + Lapatinib; first compound 0.01 µM): 0.99 | relative viability (Palbociclib + Lapatinib; first compound 0.1 µM): 0.833 | relative viability (Palbociclib + Lapatinib; first compound 0.3162 µM): 0.602 | relative viability (Palbociclib + Lapatinib; first compound 1 µM): 0.451 | relative viability (Palbociclib + Crizotinib; first compound 0.01 µM): 0.845 | relative viability (Palbociclib + Crizotinib; first compound 0.1 µM): 0.513 | relative viability (Palbociclib + Crizotinib; first compound 0.3162 µM): 0.505 | relative viability (Palbociclib + Crizotinib; first compound 1 µM): 0.227 | relative viability (Palbociclib + AZD7762; first compound 0.01 µM): 0.12 | relative viability (Palbociclib + AZD7762; first compound 0.1 µM): 0.109 | relative viability (Palbociclib + AZD7762; first compound 0.3162 µM): 0.0999 | relative viability (Palbociclib + AZD7762; first compound 1 µM): 0.14 | relative viability (Palbociclib + Pictilisib; first compound 0.01 µM): 0.225 | relative viability (Palbociclib + Pictilisib; first compound 0.03162 µM): 0.211 | relative viability (Palbociclib + Pictilisib; first compound 0.1 µM): 0.242 | relative viability (Palbociclib + Pictilisib; first compound 0.3162 µM): 0.252 | relative viability (Palbociclib + Pictilisib; first compound 1 µM): 0.21 | relative viability (Palbociclib + Bortezomib; first compound 0.01 µM): 0.266 | relative viability (Palbociclib + Bortezomib; first compound 0.03162 µM): 0.23 | relative viability (Palbociclib + Bortezomib; first compound 0.1 µM): 0.197 | relative viability (Palbociclib + Bortezomib; first compound 0.3162 µM): 0.226 | relative viability (Palbociclib + Bortezomib; first compound 1 µM): 0.188 | relative viability (Palbociclib + Linsitinib; first compound 0.01 µM): 1.11 | relative viability (Palbociclib + Linsitinib; first compound 0.03162 µM): 0.64 | relative viability (Palbociclib + Linsitinib; first compound 0.1 µM): 0.673 | relative viability (Palbociclib + Linsitinib; first compound 0.3162 µM): 0.617 | relative viability (Palbociclib + Linsitinib; first compound 1 µM): 0.323 | relative viability (Palbociclib + Alpelisib; first compound 0.01 µM): 0.298 | relative viability (Palbociclib + Alpelisib; first compound 0.03162 µM): 0.346 | relative viability (Palbociclib + Alpelisib; first compound 0.1 µM): 0.301 | relative viability (Palbociclib + Alpelisib; first compound 0.3162 µM): 0.231 | relative viability (Palbociclib + Alpelisib; first compound 1 µM): 0.182 | relative viability (Palbociclib; 0.01 µM): 0.912 | relative viability (Palbociclib; 0.03162 µM): 0.676 | relative viability (Palbociclib; 0.1 µM): 0.842 | relative viability (Palbociclib; 0.3162 µM): 0.444 | relative viability (Palbociclib; 1 µM): 0.345
